Earlier results, collected in article PMC8136953 (Veterinary Medicine and Science, 2020).

Design: method as in Park et al., 2006
Conditions: ref Park et al., 2006; cited from earlier work

For `CS(=O)(=O)c1ccc([C@@H](O)[C@H](N)CF)cc1` [FLO amine, florfenicol amine], the Antibacterial activity is given as “virtually lacks antibacterial activity”.
